Results taken from patent US12492173B2, “Herbicidal substituted N-tetrazolyl aryl carboxamides” (Bayer Aktiengesellschaft, priority 2019, dated 2025).

Experiments:
Assay type in all cases: in vivo
[1] = system: Veronica persica; experiment: Post-emergence herbicidal action, VERPE; set-up: key: % herbicidal action vs untreated; 100 = plants died, 0 = like control
Procedure, shortened: (§1)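 Percent herbicidal effect was judged by eye against untreated controls around 3 weeks after foliar treatment, where 100% meant dead plants. Spraying took place at the one-leaf stage using wettable powder or emulsion concentrate diluted in water (600 to 800 l/ha) with added wetting agent at 0.2%.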

[2] = system: Echinochloa crus-galli; experiment: Pre-emergence herbicidal action, ECHCG; set-up: key to Herbicidal action against ECHCG: % activity: 100 = plants have died, 0 = like control plants; conditions: for herbicidal activity ECHCG: scored visually after 3 weeks vs untreated controls (100% = plants have died)
Procedure, shortened: (§2)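 Seeds were covered with sandy loam soil, then received a pre-emergence surface spray of the WP- or EC-formulated compound. After 3 weeks under good greenhouse growth conditions, damage was scored visually in percent.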

[3] = system: Echinochloa crus-galli; experiment: Post-emergence herbicidal action, ECHCG; set-up: key: % herbicidal action vs untreated; 100 = plants died, 0 = like control
Procedure, shortened: as §1

[4] = system: Abutilon theophrasti; experiment: Post-emergence herbicidal action, ABUTH; set-up: key: % herbicidal action vs untreated; 100 = plants died, 0 = like control
Procedure, shortened: as §1

[5] = system: Veronica persica; experiment: Pre-emergence herbicidal action, VERPE; set-up: key to Herbicidal action against VERPE: % activity: 100 = plants have died, 0 = like control plants; conditions: for herbicidal activity VERPE: scored visually after 3 weeks vs untreated controls (100% = plants have died)
Procedure, shortened: as §2

[6] = system: Amaranthus retroflexus; experiment: Post-emergence herbicidal action, AMARE; set-up: key: % herbicidal action vs untreated; 100 = plants died, 0 = like control
Procedure, shortened: as §1

[7] = comparative experiment, post-emergence, 5 g of a.i./ha
[8] = comparative experiment, 20 g of a.i./ha

Structure (SMILES)	herbicidal action VERPE ([1]; Dosage 80 g/ha)	herbicidal action ECHCG ([3]; Dosage 80 g/ha)	herbicidal action ABUTH ([4]; Dosage 80 g/ha)	herbicidal action AMARE ([6]; Dosage 80 g/ha)	herbicidal activity ECHCG ([2]; dosage 320 g/ha) [%]	herbicidal activity VERPE ([5]; dosage 320 g/ha) [%]	further results
CCn1nnnc1NC(=O)c1ccc(S(C)(=O)=O)c(CS(C)(=O)=O)c1C [Example 2-39]	100	90	90	100			herbicidal action ECHCG ([2]; dosage 320 g/ha): 90%; herbicidal action VERPE ([5]; dosage 320 g/ha): 100%
CSCc1c(C(F)F)ccc(C(=O)Nc2nnnn2C)c1C [Example 1-107, 4-(difluoromethyl)-2-methyl-3-[(methylsulfanyl)methyl]-N-(1-methyl-1H-tetrazol-5-yl)benzamide]	100	90	80	90	100	100	Herbicidal action against ECHCG [3, 7]: 80
Cn1nnnc1NC(=O)c1ccc(C(F)(F)F)c(CS(C)(=O)=O)c1F [Example 1-244]	100	90	90	90	100	100	
COc1c(C(=O)Nc2nnnn2C)ccc(C(F)(F)F)c1CSC [Example 1-134]	100	100	100	100	100	100	Herbicidal action against VERPE [1, 7]: 100; Herbicidal action against VERPE ([1]; post-emergence, dosage 80 g/ha): 100; Herbicidal action against ECHCG ([3]; post-emergence, dosage 80 g/ha): 90; Herbicidal action against AMARE ([6]; post-emergence, dosage 80 g/ha): 100
CCn1nnnc1NC(=O)c1ccc(C(F)(F)F)c(CSC)c1Br [Example 2-380]					100	100	herbicidal action VERPE ([1]; post-emergence, dosage 80 g/ha): 100%; herbicidal action ECHCG ([3]; post-emergence, dosage 80 g/ha): 90%; herbicidal action ABUTH ([4]; post-emergence, dosage 80 g/ha): 80%; herbicidal action AMARE ([6]; post-emergence, dosage 80 g/ha): 80%
Cc1c(C(=O)Nc2nnnn2C)ccc(C(F)F)c1CS(C)(=O)=O [Example 1-109]	100	100	90	100	90	80	Herbicidal action against AMARE [6, 7]: 100
CCCn1nnnc1NC(=O)c1ccc(C(F)(F)F)c(CSCC)c1Br [Example 3-383]	100	90	90	90	100	100	
Cn1nnnc1NC(=O)c1ccc(C(F)(F)F)c(CS(C)(=O)=O)c1Br [Example 1-382, 2-bromo-3-[(methylsulfonyl)methyl]-N-(1-methyl-1H-tetrazol-5-yl)-4-(trifluoromethyl)benzamide]	100	90	100	100	100	100	Herbicidal action against VERPE [5, 8]: 100
CCn1nnnc1NC(=O)c1ccc(C(F)(F)F)c(CS(C)(=O)=O)c1SC [Example 2-163]	100	100	100	100	100	100	
CCCn1nnnc1NC(=O)c1ccc(C(F)F)c(C[S+]([O-])CC)c1Cl (stereo not drawn) [Example 3-324]		100	100		100		
CCCn1nnnc1NC(=O)c1ccc(C(F)(F)F)c(CSCC)c1Cl [Example 3-299]	100	90	90	90	100	100	
CCCn1nnnc1NC(=O)c1ccc(C(F)(F)F)c(CSC)c1Br [Example 3-380]	80	90	80		100	90	
Cn1nnnc1NC(=O)c1ccc(C(F)(F)F)c(C[S+](C)[O-])c1Br (stereo not drawn) [Example 1-381]					100	100	herbicidal action VERPE ([1]; post-emergence, dosage 80 g/ha): 100%; Herbicidal action against ECHCG [2, 8]: 90; herbicidal action ECHCG ([3]; post-emergence, dosage 80 g/ha): 90%; herbicidal action ABUTH ([4]; post-emergence, dosage 80 g/ha): 100%; herbicidal action AMARE ([6]; post-emergence, dosage 80 g/ha): 100%
Cc1ccc(C(=O)Nc2nnnn2C)c(Cl)c1CS(C)(=O)=O [Example 1-289]	100	100		100	90	100	
C=CCSCc1c(C(F)(F)F)ccc(C(=O)Nc2nnnn2C)c1Cl [Example 1-308]					100	100	herbicidal action VERPE ([1]; post-emergence, dosage 80 g/ha): 80%; herbicidal action ECHCG ([3]; post-emergence, dosage 80 g/ha): 100%; herbicidal action ABUTH ([4]; post-emergence, dosage 80 g/ha): 100%; herbicidal action AMARE ([6]; post-emergence, dosage 80 g/ha): 100%
Cn1nnnc1NC(=O)c1ccc(C(F)(F)F)c(C[S+](C)[O-])c1Cl (racemic) [Example 1-297]					100	100	herbicidal action VERPE ([1]; post-emergence, dosage 80 g/ha): 100%; herbicidal action ECHCG ([3]; post-emergence, dosage 80 g/ha): 100%; herbicidal action ABUTH ([4]; post-emergence, dosage 80 g/ha): 80%; herbicidal action AMARE ([6]; post-emergence, dosage 80 g/ha): 90%
CCSCc1c(C(F)(F)F)ccc(C(=O)Nc2nnnn2CC)c1Br [Example 2-383]					100	100	herbicidal action VERPE ([1]; post-emergence, dosage 80 g/ha): 100%; herbicidal action ECHCG ([3]; post-emergence, dosage 80 g/ha): 90%; herbicidal action ABUTH ([4]; post-emergence, dosage 80 g/ha): 100%; herbicidal action AMARE ([6]; post-emergence, dosage 80 g/ha): 100%
CCCn1nnnc1NC(=O)c1ccc(C(F)(F)F)c(CSC)c1Cl [Example 3-296]	100	100	100	100	100	100	
